Assay results taken from PubChem BioAssay AID256 (DTP/NCI, 2004).
Toxic doses and inconclusive results are not listed. Rule for the calls: active = survival T/C of 150% or more; inactive = T/C below 125% in these data.

Test system: CD2F1 mice, L1210 leukemia ip, survival T/C
Experiment: NCI In Vivo Anticancer Drug Screen. Data for tumor model L1210 Leukemia (intraperitoneal) in CD2F1 (CDF1) mice
Settings: higher = longer survival
In short: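 Antitumor effect is scored in animals hosting a serially transplanted tumor. Values compare compound-dosed animals against vehicle-only controls as a simple quotient.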

[1] = endpoint: mean survival time, dose: 100.0 mg/kg/injection, schedule: Q01DX009 (ip), vehicle: saline with Tween-80
[2] = endpoint: mean survival time, dose: 100.0 mg/kg/injection, schedule: Q04DX003 (ip), vehicle: saline with Tween-80
[3] = endpoint: mean survival time, dose: 200.0 mg/kg/injection, schedule: Q01DX009 (ip), vehicle: saline with Tween-80
[4] = endpoint: mean survival time, dose: 200.0 mg/kg/injection, schedule: Q04DX003 (ip), vehicle: saline with Tween-80
[5] = endpoint: mean survival time, dose: 400.0 mg/kg/injection, schedule: Q01DX009 (ip), vehicle: saline with Tween-80
[6] = endpoint: mean survival time, dose: 400.0 mg/kg/injection, schedule: Q04DX003 (ip), vehicle: saline with Tween-80
[7] = endpoint: mean survival time, dose: 100.0 mg/kg/injection, schedule: Q01DX001 (ip), vehicle: saline with Tween-80
[8] = endpoint: mean survival time, dose: 200.0 mg/kg/injection, schedule: Q01DX001 (ip), vehicle: saline with Tween-80
[9] = endpoint: mean survival time, dose: 50.0 mg/kg/injection, schedule: Q01DX009 (ip), vehicle: saline with Tween-80
[10] = endpoint: mean survival time, dose: 400.0 mg/kg/injection, schedule: Q01DX001 (ip), vehicle: saline with Tween-80
[11] = endpoint: mean survival time, dose: 50.0 mg/kg/injection, schedule: Q01DX009 (ip), vehicle: Klucel (hydroxypropylcellulose) (HPC)
[12] = endpoint: mean survival time, dose: 100.0 mg/kg/injection, schedule: Q01DX009 (ip), vehicle: Klucel (hydroxypropylcellulose) (HPC)
[13] = endpoint: mean survival time, dose: 200.0 mg/kg/injection, schedule: Q01DX009 (ip), vehicle: Klucel (hydroxypropylcellulose) (HPC)

Measured: T/C

C/C=C/C(=O)NCC(C(C)C)/[N+]([O-])=N/O (stereo unspecified)
inactive: endpoint: mean survival time, dose: 6.25 mg/kg/injection, schedule: Q01DX009 (ip), vehicle: saline with Tween-80 94 % of control | endpoint: mean survival time, dose: 12.5 mg/kg/injection, schedule: Q01DX009 (ip), vehicle: saline with Tween-80 103 % of control | endpoint: mean survival time, dose: 25.0 mg/kg/injection, schedule: Q01DX009 (ip), vehicle: saline with Tween-80 94 % of control

N#C/C(=C\c1cc(Cl)cc(Cl)c1O)C(/C(C#N)=C/c1cc(Cl)cc(Cl)c1O)c1ccc2c(c1)OCO2 (stereo unspecified)
inactive: [1] 101 % of control | [2] 101 % of control | [3] 94 % of control | [4] 97 % of control | [5] 105 % of control | [6] 103 % of control

COC(=O)c1ccccc1-c1c(C)cccc1[N+](=O)[O-]
inactive: endpoint: mean survival time, dose: 100.0 mg/kg/injection, schedule: Q01DX001 (ip), vehicle: Klucel (hydroxypropylcellulose) (HPC) 98 % of control | endpoint: mean survival time, dose: 200.0 mg/kg/injection, schedule: Q01DX001 (ip), vehicle: Klucel (hydroxypropylcellulose) (HPC) 87 % of control | endpoint: mean survival time, dose: 400.0 mg/kg/injection, schedule: Q01DX001 (ip), vehicle: Klucel (hydroxypropylcellulose) (HPC) 89 % of control

CC(C)c1cc(C(=O)O)c(O)c(C(C)C)c1.CC(C)c1cc(C(=O)O)c(O)c(C(C)C)c1.[Cu]
inactive: endpoint: median survival time, dose: 6.25 mg/kg/injection, schedule: Q01DX009 (ip), vehicle: saline with Tween-80 100 % of control | endpoint: median survival time, dose: 12.5 mg/kg/injection, schedule: Q01DX009 (ip), vehicle: saline with Tween-80 96 % of control | endpoint: median survival time, dose: 25.0 mg/kg/injection, schedule: Q01DX009 (ip), vehicle: saline with Tween-80 96 % of control

CNc1ccc(O)cc1
inactive: endpoint: mean survival time, dose: 5.0 mg/kg/injection, schedule: Q01DX009 (ip), vehicle: saline sonified 101 % of control | endpoint: mean survival time, dose: 5.0 mg/kg/injection, schedule: Q04DX003 (ip), vehicle: saline 91 % of control | endpoint: mean survival time, dose: 10.0 mg/kg/injection, schedule: Q01DX009 (ip), vehicle: saline sonified 103 % of control | endpoint: mean survival time, dose: 10.0 mg/kg/injection, schedule: Q04DX003 (ip), vehicle: saline 97 % of control | endpoint: mean survival time, dose: 20.0 mg/kg/injection, schedule: Q01DX009 (ip), vehicle: saline sonified 104 % of control | endpoint: mean survival time, dose: 20.0 mg/kg/injection, schedule: Q04DX003 (ip), vehicle: saline 101 % of control

NNC(=O)CCCCCC/C=C/CCCCCCCO
inactive: endpoint: mean survival time, dose: 50.0 mg/kg/injection, schedule: Q01DX001 (ip), vehicle: saline with Tween-80 98 % of control | [7] 108 % of control | [8] 101 % of control

O=C(CCc1ccc(O)cc1)c1c(O)cc(O)cc1O
inactive: endpoint: mean survival time, dose: 50.0 mg/kg/injection, schedule: Q01DX009 (ip), vehicle: saline + alcohol 110 % of control | endpoint: mean survival time, dose: 100.0 mg/kg/injection, schedule: Q01DX009 (ip), vehicle: saline + alcohol 96 % of control | endpoint: mean survival time, dose: 200.0 mg/kg/injection, schedule: Q01DX009 (ip), vehicle: saline + alcohol 89 % of control | endpoint: mean survival time, dose: 400.0 mg/kg/injection, schedule: Q01DX009 (ip), vehicle: saline + alcohol 98 % of control

O=C(O)CCCC(=O)C1CCCCC1
inactive: [9] 103 % of control | [1] 103 % of control | [2] 95 % of control | [3] 98 % of control | [4] 90 % of control

CC(=O)OC1CCC2(C)C(=C(C)CC3C2CCC2(C)C(C(C)=O)CCC32)C1 (stereo unspecified)
inactive: [1] 98 % of control | [3] 95 % of control | [5] 97 % of control

CCCC/C=C/C1(O)CCCCC1
inactive: [9] 98 % of control | [1] 103 % of control | [3] 103 % of control

COc1cc(C2c3cc4c(cc3C(OC3CCCCO3)C3COC(=O)C23)OCO4)cc(OC)c1OC (stereo unspecified)
inactive: endpoint: median survival time, dose: 1.56 mg/kg/injection, schedule: Q01DX009 (ip), vehicle: Klucel (hydroxypropylcellulose) (HPC) 109 % of control | endpoint: median survival time, dose: 3.12 mg/kg/injection, schedule: Q01DX009 (ip), vehicle: Klucel (hydroxypropylcellulose) (HPC) 120 % of control | endpoint: median survival time, dose: 3.13 mg/kg/injection, schedule: Q01DX009 (ip), vehicle: Klucel (hydroxypropylcellulose) (HPC) 114 % of control | endpoint: median survival time, dose: 6.25 mg/kg/injection, schedule: Q01DX009 (ip), vehicle: Klucel (hydroxypropylcellulose) (HPC) 120 % of control | endpoint: median survival time, dose: 12.5 mg/kg/injection, schedule: Q01DX009 (ip), vehicle: Klucel (hydroxypropylcellulose) (HPC) 101 % of control

CN(C)C(=S)[S][Sn]([CH3])([CH3])[CH3]
inactive: endpoint: mean survival time, dose: 0.39 mg/kg/injection, schedule: Q01DX009 (ip), vehicle: saline 115 % of control | endpoint: mean survival time, dose: 0.78 mg/kg/injection, schedule: Q01DX009 (ip), vehicle: saline 107 % of control | endpoint: mean survival time, dose: 1.56 mg/kg/injection, schedule: Q01DX009 (ip), vehicle: saline 95 % of control

CCCCOC(=O)c1cnc[nH]c1=O
inactive: [7] 95 % of control | [8] 93 % of control | [10] 96 % of control

Cc1ccc(NC(=S)N2CCCC2)cc1
inactive: [1] 97 % of control | [3] 91 % of control | [5] 95 % of control

O=c1oc(-c2ccc(OCc3ccccc3)c(OCc3ccccc3)c2)c2c3ccccc3ccn12
inactive: endpoint: median survival time, dose: 25.0 mg/kg/injection, schedule: Q04DX003 (ip), vehicle: saline with Tween-80 88 % of control | endpoint: median survival time, dose: 50.0 mg/kg/injection, schedule: Q04DX003 (ip), vehicle: saline with Tween-80 88 % of control | endpoint: median survival time, dose: 100.0 mg/kg/injection, schedule: Q04DX003 (ip), vehicle: saline with Tween-80 88 % of control | endpoint: median survival time, dose: 200.0 mg/kg/injection, schedule: Q04DX003 (ip), vehicle: saline with Tween-80 100 % of control

OCC(CO)(CO)CO
inactive: [11] 93 % of control | [12] 93 % of control | [13] 96 % of control

O=c1[nH]cnc2[nH]ccc12
inactive: endpoint: mean survival time, dose: 75.0 mg/kg/injection, schedule: Q01DX001 (ip), vehicle: saline 110 % of control | endpoint: mean survival time, dose: 150.0 mg/kg/injection, schedule: Q01DX001 (ip), vehicle: saline 96 % of control

COc1cc2c(cc1O)C(O)CNC2 (stereo unspecified)
inactive: endpoint: mean survival time, dose: 100.0 mg/kg/injection, schedule: Q01DX001 (ip), vehicle: saline 104 % of control | endpoint: mean survival time, dose: 200.0 mg/kg/injection, schedule: Q01DX001 (ip), vehicle: saline 93 % of control | endpoint: mean survival time, dose: 400.0 mg/kg/injection, schedule: Q01DX001 (ip), vehicle: saline 98 % of control

CCOC/C=C/C(C)(C)C
inactive: [9] 102 % of control | [1] 102 % of control | [3] 97 % of control

CC(=Nc1ccccc1)c1cccs1
inactive: [2] 95 % of control | [4] 101 % of control | [6] 87 % of control

COc1cc(Cl)c(CCBr)cc1OC
inactive: [11] 104 % of control | [12] 89 % of control | [13] 96 % of control

CCN(C(=O)Nc1ccc(OC)cc1)c1ccccc1
inactive: [2] 98 % of control | [4] 95 % of control

C/C=C/C(O)C(O)/C=C/C (stereo unspecified)
inactive: [7] 94 % of control | [8] 97 % of control | [10] 97 % of control

CC(=O)N(Cc1ccncc1)N=O
inactive: endpoint: mean survival time, dose: 75.0 mg/kg/injection, schedule: Q01DX001 (ip), vehicle: water 110 % of control | endpoint: mean survival time, dose: 150.0 mg/kg/injection, schedule: Q01DX001 (ip), vehicle: water 114 % of control | endpoint: mean survival time, dose: 300.0 mg/kg/injection, schedule: Q01DX001 (ip), vehicle: water 116 % of control

C[N+](C)(C)CC1CCCC1
inactive: endpoint: mean survival time, dose: 5.0 mg/kg/injection, schedule: Q01DX001 (ip), vehicle: saline 97 % of control | endpoint: mean survival time, dose: 10.0 mg/kg/injection, schedule: Q01DX001 (ip), vehicle: saline 102 % of control | endpoint: mean survival time, dose: 20.0 mg/kg/injection, schedule: Q01DX001 (ip), vehicle: saline 103 % of control | endpoint: mean survival time, dose: 40.0 mg/kg/injection, schedule: Q01DX001 (ip), vehicle: saline 103 % of control
